{"source": "paper PMC5218480", "about": "(PLoS ONE, 2017)", "system": "MV-4-11 cells", "experiment": "Gene expression microarray analysis (Affymetrix PrimeView) and GSEA", "format": "cell-based, human", "set-up": "RFU PODN (11730768_x_at) / Fold change /veh PODN (11730768_x_at) / RFU LINC00158 (11744669_a_at) / Fold change /veh LINC00158 (11744669_a_at) / RFU DUSP10 (11751237_a_at) / Fold change /veh DUSP10 (11751237_a_at) / RFU ID3 (11757404_x_at) / Fold change /veh ID3 (11757404_x_at) / RFU PLEKHG5 (11737974_s_at) / Fold change /veh PLEKHG5 (11737974_s_at) / RFU LRRC4B (11730491_at) / Fold change /veh LRRC4B (11730491_at) / RFU GIMAP4 (11747438_a_at) / Fold change /veh GIMAP4 (11747438_a_at) / RFU KRT8 (11758183_x_at) / Fold change /veh KRT8 (11758183_x_at) / RFU CNN1 (11734310_a_at) / Fold change /veh CNN1 (11734310_a_at) / RFU VPS37D (11726825_at) / Fold change /veh VPS37D (11726825_at) / RFU C10orf10 (11716522_x_at) / Fold change /veh C10orf10 (11716522_x_at) / RFU KIR2DL2 /// KIR2DL4 /// KIR2DL5A /// KIR2DL5B /// KIR2DS1 /// KIR2DS2 /// KIR2DS3 /// KIR2DS4 /// KIR3DL3 /// KIR3DL3 /// KIR3DS1 (11738374_at) / Fold change /veh KIR2DL2 /// KIR2DL4 /// KIR2DL5A /// KIR2DL5B /// KIR2DS1 /// KIR2DS2 /// KIR2DS3 /// KIR2DS4 /// KIR3DL3 /// KIR3DL3 /// KIR3DS1 (11738374_at) / RFU C1QL1 (11718748_at) / Fold change /veh C1QL1 (11718748_at) / RFU TMPRSS4 (11747572_a_at) / Fold change /veh TMPRSS4 (11747572_a_at) / RFU HAMP (11756126_x_at) / Fold change /veh HAMP (11756126_x_at) / RFU RNFT2 (11725882_a_at) / Fold change /veh RNFT2 (11725882_a_at) / RFU NR4A2 (11747474_a_at) / Fold change /veh NR4A2 (11747474_a_at) / RFU ABCC12 (11746883_a_at) / Fold change /veh ABCC12 (11746883_a_at) / RFU TMEM136 (11760407_x_at) / Fold change /veh TMEM136 (11760407_x_at) / RFU CLDN22 /// WWC2 (11732394_at) / Fold change /veh CLDN22 /// WWC2 (11732394_at) / RFU HLA-DPB1 (11760878_x_at) / Fold change /veh HLA-DPB1 (11760878_x_at) / RFU SPINT1 (11716480_a_at) / Fold change /veh SPINT1 (11716480_a_at) / RFU GAP43 (11754022_s_at) / Fold change /veh GAP43 (11754022_s_at) / RFU A4GNT (11735810_at) / Fold change /veh A4GNT (11735810_at) / RFU PRB3 (11715151_x_at) / Fold change /veh PRB3 (11715151_x_at) / RFU TUBB4B (11761932_at) / Fold change /veh TUBB4B (11761932_at) / RFU CAPN14 (11732068_a_at) / Fold change /veh CAPN14 (11732068_a_at) / RFU TMCC2 (11721928_a_at) / Fold change /veh TMCC2 (11721928_a_at) / RFU IRGQ (11745062_a_at) / Fold change /veh IRGQ (11745062_a_at) / RFU FAM174B (11720279_a_at) / Fold change /veh FAM174B (11720279_a_at) / RFU TMPRSS4 (11748680_a_at) / Fold change /veh TMPRSS4 (11748680_a_at) / RFU FAM212B (11763350_a_at) / Fold change /veh FAM212B (11763350_a_at) / RFU PLEKHG5 (11743358_a_at) / Fold change /veh PLEKHG5 (11743358_a_at) / RFU ZSCAN30 (11745921_a_at) / Fold change /veh ZSCAN30 (11745921_a_at) / RFU CMKLR1 (11741424_a_at) / Fold change /veh CMKLR1 (11741424_a_at) / RFU LOC101060620 /// MAPK8IP1 (11723275_at) / Fold change /veh LOC101060620 /// MAPK8IP1 (11723275_at) / RFU SPTSSB (11747773_x_at) / Fold change /veh SPTSSB (11747773_x_at) / RFU PRSS12 (11739890_at) / Fold change /veh PRSS12 (11739890_at) / RFU BIN1 (11741810_x_at) / Fold change /veh BIN1 (11741810_x_at) / RFU WNT11 (11732464_a_at) / Fold change /veh WNT11 (11732464_a_at) / RFU C10orf10 (11716521_a_at) / Fold change /veh C10orf10 (11716521_a_at) / RFU C5orf56 (11738089_at) / Fold change /veh C5orf56 (11738089_at) / RFU CYB561 (11721691_x_at) / Fold change /veh CYB561 (11721691_x_at) / RFU ANKRD19P (11752326_a_at) / Fold change /veh ANKRD19P (11752326_a_at) / RFU OR2T12 /// OR2T33 /// OR2T8 (11738714_s_at) / Fold change /veh OR2T12 /// OR2T33 /// OR2T8 (11738714_s_at) / RFU VCAN (11748164_a_at) / Fold change /veh VCAN (11748164_a_at) / RFU JSRP1 (11732532_at) / Fold change /veh JSRP1 (11732532_at) / RFU KRTAP10-11 (11738290_x_at) / Fold change /veh KRTAP10-11 (11738290_x_at) / RFU MYO3A (11730013_a_at) / Fold change /veh MYO3A (11730013_a_at) / RFU EBF3 (11725865_a_at) / Fold change /veh EBF3 (11725865_a_at) / RFU CAMK2N1 (11719241_x_at) / Fold change /veh CAMK2N1 (11719241_x_at) / RFU C5orf56 (11738088_a_at) / Fold change /veh C5orf56 (11738088_a_at) / RFU OLFML3 (11715873_a_at) / Fold change /veh OLFML3 (11715873_a_at) / RFU LOC100653217 /// NTM (11731650_a_at) / Fold change /veh LOC100653217 /// NTM (11731650_a_at) / RFU MAPK11 (11762145_a_at) / Fold change /veh MAPK11 (11762145_a_at) / RFU FIZ1 (11724087_x_at) / Fold change /veh FIZ1 (11724087_x_at) / RFU OASL (11726364_x_at) / Fold change /veh OASL (11726364_x_at) / RFU SOX15 (11748057_x_at) / Fold change /veh SOX15 (11748057_x_at) / RFU CD79A (11719716_a_at) / Fold change /veh CD79A (11719716_a_at) / RFU HIST1H1D (11736915_at) / Fold change /veh HIST1H1D (11736915_at) / RFU CASKIN2 (11723855_a_at) / Fold change /veh CASKIN2 (11723855_a_at) / RFU LOC730098 (11760151_x_at) / Fold change /veh LOC730098 (11760151_x_at) / RFU OR4N2 (11742367_at) / Fold change /veh OR4N2 (11742367_at) / RFU PRRT2 (11749266_a_at) / Fold change /veh PRRT2 (11749266_a_at) / RFU SNX32 (11753110_a_at) / Fold change /veh SNX32 (11753110_a_at) / RFU CDHR5 (11726645_a_at) / Fold change /veh CDHR5 (11726645_a_at) / RFU RCAN1 (11760418_a_at) / Fold change /veh RCAN1 (11760418_a_at) / RFU FAM167A (11723789_a_at) / Fold change /veh FAM167A (11723789_a_at) / RFU FAM26E (11764081_at) / Fold change /veh FAM26E (11764081_at) / RFU ISYNA1 (11749810_s_at) / Fold change /veh ISYNA1 (11749810_s_at) / RFU ACY1 (11761880_at) / Fold change /veh ACY1 (11761880_at) / RFU 11764098_at / Fold change /veh 11764098_at / RFU SAMD14 (11745864_x_at) / Fold change /veh SAMD14 (11745864_x_at) / RFU NPB (11741838_a_at) / Fold change /veh NPB (11741838_a_at) / RFU TMPRSS6 (11731388_a_at) / Fold change /veh TMPRSS6 (11731388_a_at) / RFU KRTAP10-2 (11738614_at) / Fold change /veh KRTAP10-2 (11738614_at) / RFU ARHGAP8 /// PRR5-ARHGAP8 (11727945_x_at) / Fold change /veh ARHGAP8 /// PRR5-ARHGAP8 (11727945_x_at) / RFU KRTAP5-7 /// NADSYN1 (11734609_at) / Fold change /veh KRTAP5-7 /// NADSYN1 (11734609_at) / RFU RASL12 (11751679_a_at) / Fold change /veh RASL12 (11751679_a_at) / RFU CDKN2B (11736163_a_at) / Fold change /veh CDKN2B (11736163_a_at) / RFU PRF1 (11729649_at) / Fold change /veh PRF1 (11729649_at) / RFU, ZNF638 /// ZNF638-IT1 / Fold change vs veh, ZNF638 /// ZNF638-IT1 / RFU, PANK3 / Fold change vs veh, PANK3 / RFU, SH3YL1 / Fold change vs veh, SH3YL1 / RFU, ZEB2 / Fold change vs veh, ZEB2 / RFU, NRIP1 / Fold change vs veh, NRIP1 / RFU, PTTG1IP / Fold change vs veh, PTTG1IP / RFU, CAPN2 / Fold change vs veh, CAPN2 / RFU, MED14 / Fold change vs veh, MED14 / RFU, SNORA58 / Fold change vs veh, SNORA58 / RFU, C1orf63 / Fold change vs veh, C1orf63 / RFU, LRRFIP1 / Fold change vs veh, LRRFIP1 / RFU, NDUFAF7 / Fold change vs veh, NDUFAF7 / RFU, SLC12A2 / Fold change vs veh, SLC12A2 / RFU, IBTK / Fold change vs veh, IBTK / RFU, ESF1 / Fold change vs veh, ESF1 / Fold change vs veh, TMEM50B / RFU, TAOK1 / Fold change vs veh, TAOK1 / RFU, ACBD3 / Fold change vs veh, ACBD3 / RFU, TMA16 / Fold change vs veh, TMA16 / RFU, RWDD3 / Fold change vs veh, RWDD3 / RFU, BCAT1 / Fold change vs veh, BCAT1 / RFU, EDEM3 / Fold change vs veh, EDEM3 / RFU, TMEM33 / Fold change vs veh, TMEM33 / RFU, WDR75 / Fold change vs veh, WDR75 / RFU, AHCTF1 / Fold change vs veh, AHCTF1 / RFU, TFRC / Fold change vs veh, TFRC / RFU, ZDHHC17 / Fold change vs veh, ZDHHC17 / RFU, NOM1 / Fold change vs veh, NOM1 / RFU, ARL8B / Fold change vs veh, ARL8B / RFU, ZBTB11 / Fold change vs veh, ZBTB11 / RFU, TAMM41 / Fold change vs veh, TAMM41 / RFU, KIAA1704 /// LOC100996395 / Fold change vs veh, KIAA1704 /// LOC100996395 / RFU, ING1 / Fold change vs veh, ING1 / RFU, TRMT61B / Fold change vs veh, TRMT61B / RFU, FUBP3 / Fold change vs veh, FUBP3 / RFU, TP53 / Fold change vs veh, TP53 / RFU, TNKS2 / Fold change vs veh, TNKS2 / RFU, ZFP14 / Fold change vs veh, ZFP14 / RFU, ACTR2 / Fold change vs veh, ACTR2 / RFU, PPP3R1 / Fold change vs veh, PPP3R1 / RFU, PIK3R1 / Fold change vs veh, PIK3R1 / RFU, HNRNPA1 / Fold change vs veh, HNRNPA1 / RFU, RNF170 / Fold change vs veh, RNF170 / RFU, ZNF28 / Fold change vs veh, ZNF28 / RFU, RNGTT / Fold change vs veh, RNGTT / RFU, OGT / Fold change vs veh, OGT / RFU, BRD1 / Fold change vs veh, BRD1 / RFU, MARS / Fold change vs veh, MARS / RFU, ZNF655 / Fold change vs veh, ZNF655 / RFU, FAHD1 / Fold change vs veh, FAHD1 / RFU, BDP1 / Fold change vs veh, BDP1 / RFU, LRRCC1 / Fold change vs veh, LRRCC1 / RFU, ARID1A / Fold change vs veh, ARID1A / RFU, ZNF146 / Fold change vs veh, ZNF146 / RFU, ZNF330 / Fold change vs veh, ZNF330 / RFU, GPN3 / Fold change vs veh, GPN3 / RFU, C9orf123 / Fold change vs veh, C9orf123 / RFU, N4BP2L2 / Fold change vs veh, N4BP2L2 / RFU, ARFIP1 / Fold change vs veh, ARFIP1 / RFU, FAM179B / Fold change vs veh, FAM179B / RFU, BCL10 / Fold change vs veh, BCL10 / RFU, UHRF1BP1L / Fold change vs veh, UHRF1BP1L / RFU, BET1 / Fold change vs veh, BET1 / RFU, CNOT2 / Fold change vs veh, CNOT2 / RFU, ZNF268 / Fold change vs veh, ZNF268 / Fold change vs veh, ZNF507 / RFU, DGCR2 / Fold change vs veh, DGCR2 / RFU, WDSUB1 / Fold change vs veh, WDSUB1 / Fold change vs veh, HSP90B1 /// MIR3652 / RFU, ADSS / Fold change vs veh, ADSS / RFU, GK / Fold change vs veh, GK / RFU, ZNF148 / Fold change vs veh, ZNF148 / RFU, TAF9 / Fold change vs veh, TAF9 / RFU, SLC1A5 / Fold change vs veh, SLC1A5 / RFU, SLMO2 / Fold change vs veh, SLMO2 / RFU, ABCC4 / Fold change vs veh, ABCC4 / RFU, LOC101060439 /// RAP1B / Fold change vs veh, LOC101060439 /// RAP1B / RFU, RFX7 / Fold change vs veh, RFX7 / RFU, GTPBP10 / Fold change vs veh, GTPBP10 / RFU, CNEP1R1 / Fold change vs veh, CNEP1R1 / RFU, BIVM-ERCC5 /// ERCC5 / Fold change vs veh, BIVM-ERCC5 /// ERCC5 / RFU, ILF3 / Fold change vs veh, ILF3 / RFU 11762660_at / Fold change /veh 11762660_at / RFU VCAN (11757783_s_at) / Fold change /veh VCAN (11757783_s_at) / RFU DDX43 (11728927_at) / Fold change /veh DDX43 (11728927_at) / RFU KRT8 (11758188_x_at) / Fold change /veh KRT8 (11758188_x_at) / RFU NKD1 (11759106_at) / Fold change /veh NKD1 (11759106_at) / RFU SRD5A1 (11742802_a_at) / Fold change /veh SRD5A1 (11742802_a_at) / RFU TPSAB1 /// TPSB2 (11721975_s_at) / Fold change /veh TPSAB1 /// TPSB2 (11721975_s_at) / RFU GSTM3 (11746129_a_at) / Fold change /veh GSTM3 (11746129_a_at) / RFU IL23R (11737362_x_at) / Fold change /veh IL23R (11737362_x_at) / RFU TMEM51 (11727254_a_at) / Fold change /veh TMEM51 (11727254_a_at) / RFU PIWIL2 (11732686_x_at) / Fold change /veh PIWIL2 (11732686_x_at) / RFU ORM1 (11744905_x_at) / Fold change /veh ORM1 (11744905_x_at) / RFU CCDC152 (11743942_at) / Fold change /veh CCDC152 (11743942_at) / RFU ECM1 (11717891_a_at) / Fold change /veh ECM1 (11717891_a_at) / RFU IL23R (11748794_a_at) / Fold change /veh IL23R (11748794_a_at) / RFU TNFAIP8L3 (11732012_x_at) / Fold change /veh TNFAIP8L3 (11732012_x_at) / RFU MBOAT4 (11741988_at) / Fold change /veh MBOAT4 (11741988_at) / RFU 11764193_at / Fold change /veh 11764193_at / RFU TMEM53 (11763286_at) / Fold change /veh TMEM53 (11763286_at) / RFU MAGEB2 (11727129_at) / Fold change /veh MAGEB2 (11727129_at) / RFU TMEM200A (11744735_a_at) / Fold change /veh TMEM200A (11744735_a_at) / RFU CCDC152 (11751479_a_at) / Fold change /veh CCDC152 (11751479_a_at) / RFU FAM211A (11726209_a_at) / Fold change /veh FAM211A (11726209_a_at) / RFU RGS16 (11746705_a_at) / Fold change /veh RGS16 (11746705_a_at) / RFU VCAN (11755009_s_at) / Fold change /veh VCAN (11755009_s_at) / RFU RHOB (11743442_s_at) / Fold change /veh RHOB (11743442_s_at) / RFU RGS16 (11720943_a_at) / Fold change /veh RGS16 (11720943_a_at) / RFU RGS16 (11720944_at) / Fold change /veh RGS16 (11720944_at) / RFU, VPS4B / Fold change vs veh, VPS4B / RFU, CREB1 / Fold change vs veh, CREB1 / RFU, DNAJC13 / Fold change vs veh, DNAJC13 / RFU, GNAQ / Fold change vs veh, GNAQ / RFU, CDK5R1 / Fold change vs veh, CDK5R1 / RFU, ZRANB3 / Fold change vs veh, ZRANB3 / RFU, CUL4A / Fold change vs veh, CUL4A / RFU, CCNY / Fold change vs veh, CCNY / RFU, UFL1 / Fold change vs veh, UFL1 / RFU, COG3 / Fold change vs veh, COG3 / RFU, DIAPH2 / Fold change vs veh, DIAPH2 / RFU, SKA2 / Fold change vs veh, SKA2 / RFU, AFF3 / Fold change vs veh, AFF3 / RFU, LMF1 / Fold change vs veh, LMF1 / RFU, IPO11 / Fold change vs veh, IPO11 / RFU, DFFB / Fold change vs veh, DFFB / RFU, FOXP1 / Fold change vs veh, FOXP1 / RFU, CARD8 / Fold change vs veh, CARD8 / RFU, STRN3 / Fold change vs veh, STRN3 / RFU, ADK / Fold change vs veh, ADK / RFU, RASSF2 / Fold change vs veh, RASSF2 / RFU, WIPF1 / Fold change vs veh, WIPF1 / RFU, LARP1B / Fold change vs veh, LARP1B / RFU, RASA1 / Fold change vs veh, RASA1 / RFU, RB1 / Fold change vs veh, RB1 / RFU, PPFIA1 / Fold change vs veh, PPFIA1 / RFU, MAT2A / Fold change vs veh, MAT2A / RFU, CCT5 / Fold change vs veh, CCT5 / RFU, WDR92 / Fold change vs veh, WDR92 / RFU, CUX1 / Fold change vs veh, CUX1 / RFU, TTC7A / Fold change vs veh, TTC7A / RFU, TMEM135 / Fold change vs veh, TMEM135 / RFU, DEPTOR / Fold change vs veh, DEPTOR / RFU, CPM / Fold change vs veh, CPM / RFU, DNAJB6 / Fold change vs veh, DNAJB6 / RFU, CACNA2D3 / Fold change vs veh, CACNA2D3 / RFU, DTX4 / Fold change vs veh, DTX4 / RFU, TFCP2 / Fold change vs veh, TFCP2 / RFU, GMCL1 /// GMCL1P1 / Fold change vs veh, GMCL1 /// GMCL1P1 / RFU, AEBP2 / Fold change vs veh, AEBP2 / RFU, SNHG1 /// SNORD22 /// SNORD25 /// SNORD26 /// SNORD27 /// SNORD28 /// SNORD29 /// SNORD31 / Fold change vs veh, SNHG1 /// SNORD22 /// SNORD25 /// SNORD26 /// SNORD27 /// SNORD28 /// SNORD29 /// SNORD31 / Fold change (Aza/veh), C12orf56 (ProbeSet 11735607_a_at) / Fold change (ACY-1035/veh), C12orf56 (ProbeSet 11735607_a_at) / Fold change (Aza/veh), FGFR1OP (ProbeSet 11751329_s_at) / Fold change (ACY-1035/veh), FGFR1OP (ProbeSet 11751329_s_at) / Fold change (Aza/veh), VPS36 (ProbeSet 11739960_a_at) / Fold change (ACY-1035/veh), VPS36 (ProbeSet 11739960_a_at) / RFU SYPL1 (11715823_x_at) / Fold change /veh SYPL1 (11715823_x_at) / RFU IGFBP7 (11715501_s_at) / Fold change /veh IGFBP7 (11715501_s_at) / RFU REEP3 (11722064_at) / Fold change /veh REEP3 (11722064_at) / RFU IGLL1 (11728026_x_at) / Fold change /veh IGLL1 (11728026_x_at): dose or concentration left out as unconfirmed", "details": "ProbeSet 11745260_x_at; LIST B"}
{"smiles": "Nc1ncn([C@@H]2O[C@H](CO)[C@@H](O)[C@H]2O)c(=O)n1", "note": "[azacitidine]", "values": [{"measurement": "Fold change vs veh, SLC12A2", "value": 0.91}]}
